Data published in patent US20100119599A1 (ARCHER PHARMACEUTICALS, INC., priority 2006, published 2010).

How the values were obtained:
Aβ1-40 = assay: Measurement of Aβ1-40 in culture medium of 7W WT APP751 CHO cells by ELISA; assay type: cell-based, Chinese hamster; conditions: for Aβ1-40 (% of control): CHO cells that overexpress APP751, zero = below the detection limit of the assay; for activity at 5 µM: Cricetulus griseus, Table 1, 5 μM test compound, CHO cells stably transfected with human APP751, culture medium, ELISA, control DMSO, 0 = no detectable amount
Aβ1-42 = assay: Measurement of Aβ1-42 in culture medium of 7W WT APP751 CHO cells by ELISA; assay type: cell-based, Chinese hamster; conditions: for Aβ1-42 (% of control): CHO cells that overexpress APP751, zero = below the detection limit of the assay; for activity at 5 µM: Cricetulus griseus, Table 1, 5 μM test compound, CHO cells stably transfected with human APP751, culture medium, ELISA, control DMSO, 0 = no detectable amount, read-out: Aβ1-42 (% of control)
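Also: 5 µM test compound but RI-coded compounds at 10 µM for 24 hours.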

SMILES	Aβ1-40 (% of control) (Aβ1-40)	Aβ1-42 (% of control) (Aβ1-42)	activity at 5 µM (Aβ1-40)	activity at 5 µM (Aβ1-42)
CCc1ccc(C2C(C(=O)OC)=CNC=C2C(=O)OC)cc1 [ST052274, methyl 4-(4-ethylphenyl)-5-(methoxycarbonyl)-1,4-dihydropyridine-3-carboxylate]	4.952 % of control	0 % of control		
CC1=C(C(=O)OCCOc2ccccc2)C(c2ccc(C)s2)C2=C(CCCC2=O)N1 (centres unmarked) [ST052280, 2-phenoxyethyl 2-methyl-4-(5-methyl(2-thienyl))-5-oxo-1,4,6,7,8-pentahydroquinoline-3-carboxylate]			73.6%	37.7%
CCOC(=O)C1=CN(c2ccc(C)cc2)C=C(C(=O)OCC)C1c1ccccc1OCC [ST052284, ethyl 5-(ethoxycarbonyl)-4-(2-ethoxyphenyl)-1-(4-methylphenyl)-1,4-dihydropyridine-3-carboxylate]	57.71 % of control	55.61 % of control		
COc1ccccc1NC(=O)C1=C(C)NC2=C(C(=O)CCC2)C1c1ccc(Cl)cc1 (centres unmarked) [ST052292, [4-(4-chlorophenyl)-2-methyl-5-oxo(3-1,4,6,7,8-pentahydroquinolyl)]-N-(2-methoxyphenyl)carboxamide]			85.8%	68.2%
COC(=O)C1=C(C)NC2=C(C(=O)CC(c3cccs3)C2)C1c1ccc(C)s1 (centres unmarked) [ST052308, methyl 2-methyl-4-(5-methyl(2-thienyl))-5-oxo-7-(2-thienyl)-1,4,6,7,8-pentahydroquinoline-3-carboxylate]			48.4%	74.2%
COCCOC(=O)C1=C(C)NC2=C(C(=O)CC(C)(C)C2)C1c1ccc(C(C)C)cc1 (centres unmarked) [ST052313, 2-methoxyethyl 2,7,7-trimethyl-4-[4-(methylethyl)phenyl]-5-oxo-1,4,6,7,8-pentahydroquinoline-3-carboxylate]			26.3%	23.4%
CCOC(=O)C1=CN(c2ccc(F)cc2)C=C(C(=O)OCC)C1c1ccccc1OCC [ST052316, ethyl 5-(ethoxycarbonyl)-4-(2-ethoxyphenyl)-1-(4-fluorophenyl)-1,4-dihydropyridine-3-carboxylate]	68.09 % of control	40.03 % of control		
CC1=C(C(=O)OCCc2ccccc2)C(c2ccc(C(F)(F)F)cc2)C2=C(CCCC2=O)N1 (centres unmarked) [ST052320, 2-phenylethyl 2-methyl-5-oxo-4-[4-(trifluoromethyl)phenyl]-1,4,6,7,8-pentahydroquinoline-3-carboxylate]			9.44%	0%
CC1=C(C(=O)OCc2ccccc2)C(c2ccc(C(F)(F)F)cc2)C2=C(CCCC2=O)N1 (centres unmarked) [ST052323, phenylmethyl 2-methyl-5-oxo-4-[4-(trifluoromethyl)phenyl]-1,4,6,7,8-pentahydroquinoline-3-carboxylate]			4.91%	0%
COc1ccc(C2C(C(=O)OC3CCCCC3)=C(C)NC3=C2C(=O)CC(C)(C)C3)cc1O (centres unmarked) [ST052325, cyclohexyl 4-(3-hydroxy-4-methoxyphenyl)-2,7,7-trimethyl-5-oxo-1,4,6,7,8-pentahydroquinoline-3-carboxylate]			41.7%	33%
CCOC(=O)C1=CN(c2ccc(F)cc2)C=C(C(=O)OCC)C1c1cccs1 [ST052327, ethyl 5-(ethoxycarbonyl)-1-(4-fluorophenyl)-4-(2-thienyl)-1,4-dihydropyridine-3-carboxylate]	57.74 % of control	84.33 % of control		
CC1=C(C(=O)OCCOc2ccccc2)C(c2coc3ccc(C)cc3c2=O)C2=C(CCCC2=O)N1 (centres unmarked) [ST052330, 2-phenoxyethyl 2-methyl-4-(6-methyl-4-oxochromen-3-yl)-5-oxo-1,4,6,7,8-pentahydroquinoline-3-carboxylate]			42.6%	15.5%
CCSCCOC(=O)C1=C(C)NC2=C(C(=O)CC(C)(C)C2)C1c1ccccc1C (centres unmarked) [ST052342, 2-ethylthioethyl 2,7,7-trimethyl-4-(2-methylphenyl)-5-oxo-1,4,6,7,8-pentahydroquinoline-3-carboxylate]			13.7%	9.88%
CC1=C(C(=O)OCCc2ccccc2)C(c2ccc(C)s2)C2=C(CC(C)(C)CC2=O)N1 (centres unmarked) [ST052344, 2-phenylethyl 2,7,7-trimethyl-4-(5-methyl(2-thienyl))-5-oxo-1,4,6,7,8-pentahydroquinoline-3-carboxylate]			24.1%	24.4%
CC1=C(C(=O)OCC(C)C)C(c2ccc(F)c(F)c2)C2=C(CCCC2=O)N1 (centres unmarked) [ST052345, 2-methylpropyl 4-(3,4-difluorophenyl)-2-methyl-5-oxo-1,4,6,7,8-pentanydroquinoline-3-carboxylate]			43.6%	7.81%
COC(=O)C1=C(C)NC2=C(C(=O)CCC2)C1c1cccc(C(F)(F)F)c1 (centres unmarked) [ST052347, methyl 2-methyl-5-oxo-4-[3-(trifluoromethyl)phenyl]-1,4,6,7,8-pentahydroquinoline-3-carboxylate]			57.2%	64.3%

SMILES	Aβ1-40 (% of control) (Aβ1-40)	Aβ1-42 (% of control) (Aβ1-42)	activity at 5 µM (Aβ1-40)	activity at 5 µM (Aβ1-42)
CC1=C(C(=O)OCC(C)C)C(c2cc([N+](=O)[O-])ccc2Cl)C2=C(CCCC2=O)N1 (centres unmarked) [ST052351, 2-methylpropyl 4-(2-chloro-5-nitrophenyl)-2-methyl-5-oxo-1,4,6,7,8-pentahydroquinoline-3-carboxylate]			19.3%	20.3%
COc1ccc(COC(=O)C2=C(C)NC3=C(C(=O)CCC3)C2c2cccc(C)c2)cc1 (centres unmarked) [ST052354, (4-methoxyphenyl)methyl 2-methyl-4-(3-methylphenyl)-5-oxo-1,4,6,7,8-pentahydroquinoline-3-carboxylate]			95.1%	57.2%
COc1ccc(COC(=O)C2=C(C)NC3=C(C(=O)CC(C)(C)C3)C2c2ccc(Cl)c([N+](=O)[O-])c2)cc1 (centres unmarked) [ST052357, (4-methoxyphenyl)methyl 4-(4-chloro-3-nitrophenyl)-2,7,7-trimethyl-5-oxo-1,4,6,7,8-pentahydroquinoline-3-carboxylate]			13.3%	23.4%
COC(=O)C1=C(C)NC2=C(C(=O)CC(C)(C)C2)C1c1ccc(C(F)(F)F)cc1 (centres unmarked) [ST052359, methyl 2,7,7-trimethyl-5-oxo-4-[4-(trifluoromethyl)phenyl]-1,4,6,7,8-pentahydroquinoline-3-carboxylate]			31%	29.5%
COC(=O)C1=C(C)NC2=C(C(=O)CC(C)(C)C2)C1c1cccc(OCc2ccccc2)c1 (centres unmarked) [ST052360, methyl 2,7,7-trimethyl-5-oxo-4-[3-(phenylmethoxy)phenyl]-1,4,6,7,8-pentahydroquinoline-3-carboxylate]			55.7%	61.6%
COC(=O)C1=C(C)NC2=C(C(=O)CCC2)C1c1ccc(Cl)c([N+](=O)[O-])c1 (centres unmarked) [ST052361, methyl 4-(4-chloro-3-nitrophenyl)-2-methyl-5-oxo-1,4,6,7,8-pentahydroquinoline-3-carboxylate]			84.1%	63.2%
COc1ccc(COC(=O)C2=C(C)NC3=C(C(=O)CCC3)C2c2ccc(C(F)(F)F)cc2)cc1 (centres unmarked) [ST052362, (4-methoxyphenyl)methyl 2-methyl-5-oxo-4-[4-(trifluoromethyl)phenyl]-1,4,6,7,8-pentahydroquinoline-3-carboxylate]			7.11%	0%
CCCOC(=O)C1=C(C)NC2=C(C(=O)CCC2)C1c1cc(Br)ccc1OC (centres unmarked) [ST052364, propyl 4-(5-bromo-2-methoxyphenyl)-2-methyl-5-oxo-1,4,6,7,8-pentahydroquinoline-3-carboxylate]			27%	13.5%
CC1=C(C(=O)OCC(C)C)C(c2cccc3ccccc23)C2=C(CCCC2=O)N1 (centres unmarked) [ST052365, 2-methylpropyl 2-methyl-4-naphthyl-5-oxo-1,4,6,7,8-pentahydroquinoline-3-carboxylate]			59.1%	72.8%
CCOC(=O)C1=C(C)N(C)C(C)=C(C(=O)OCC)C1c1ccccn1 [ST052366, ethyl 5-(ethoxycarbonyl)-1,2,6-trimethyl-4-(2-pyridyl)-1,4-dihydropyridine-3-carboxylate]	56.21 % of control	89.76 % of control		
COC(=O)C1=C(C)NC2=C(C(=O)CCC2)C1c1cc(F)ccc1F (centres unmarked) [ST052368, methyl 4-(2,5-difluorophenyl)-2-methyl-5-oxo-1,4,6,7,8-pentahydroquinoline-3-carboxylate]			66.3%	74.2%
CCOCCOC(=O)C1=C(C)NC2=C(C(=O)CCC2)C1c1coc2ccccc2c1=O (centres unmarked) [ST052370, 2-ethoxyethyl 2-methyl-5-oxo-4-(4-oxochromen-3-yl)-1,4,6,7,8-pentahydroquinoline-3-carboxylate]			68.6%	69.7%
COc1ccc(COC(=O)C2=C(C)NC3=C(C(=O)CCC3)C2c2cccs2)cc1 (centres unmarked) [ST052371, (4-methoxyphenyl)methyl 2-methyl-5-oxo-4-(2-thienyl)-1,4,6,7,8-pentahydroquinoline-3-carboxylate]			59.8%	92.5%
COc1ccc(OC)c(C2C(C(=O)OCCc3ccccc3)=C(C)NC3=C2C(=O)CCC3)c1 (centres unmarked) [ST052373, 2-phenylethyl 4-(2,5-dimethoxyphenyl)-2-methyl-5-oxo-1,4,6,7,8-pentahydroquinoline-3-carboxylate]			39.4%	37.4%
CCOc1ccccc1C1C(C(=O)OCCOc2ccccc2)=C(C)NC2=C1C(=O)CC(C)(C)C2 (centres unmarked) [ST052381, 2-phenoxyethyl 4-(2-ethoxyphenyl)-2,7,7-trimethyl-5-oxo-1,4,6,7,8-pentahydroquinoline-3-carboxylate]			45.1%	62%
